Patent US10856562B2, “Flavor composition and edible compositions containing same” (MARS, INCORPORATED, priority 2013, dated 2020)
Square brackets hold non-standard residues; d marks the D form. Ends that are not written are not given here. pGlu = O=C1CC[C@@H](C(=O)O)N1

Experiments:
panel of trained tasters = assay: Saltiness of sodium-reduced pasta sauce with peptides, panel of trained tasters; assay type: in vivo, human; conditions: 10 ppb of UE-30
Method: Food product compositions were prepared by admixing flavor composition peptide(s) of the present application with food compositions, wherein the level of sodium (NaCl) in the food product compositions was reduced. The level of sodium was reduced by 25%, 50% or 75% compared to food products compositions that were not admixed with flavor composition peptides. The food product compositions comprising the flavor composition peptides were tasted by a panel of trained tasters and the level of saltiness was compared to the control food products.
The peptides pGlu-Val-Leu (identified as “SE-13”), pGlu-Val-Cys (identified as “UE-30”) and pGlu-Val-Val (identified as “SE-17”) were tested in Pasta Sauce. The control pasta sauce comprised 540 mg sodium (NaCl) in a 125 g serving.

panelists = assay: Attribute perception scores of flavor enhancers in solution (Example 6); assay type: in vivo, human; set-up: key to Metallic / Numbing / Atringent / Salt / Sweet / Sour / Bitter / Umami / Sour, mean evaluation score in solution / Numbing, mean evaluation score in solution / Astringent / Umami FF: 15-point intensity scale, 0 = none, 15 = very strong; conditions: for Astringent, mean evaluation score in solution / Bitter, mean evaluation score in solution / Flinty/Mineral, mean evaluation score in solution / Metallic, mean evaluation score in solution / Numbing, mean evaluation score in solution / Salt, mean evaluation score in solution / Sour, mean evaluation score in solution / Sweet, mean evaluation score in solution / Umami FF, mean evaluation score in solution / Umami, mean evaluation score in solution / Atringent / Bitter / Metallic / Mineral/Flinty / Numbing / Salt / Sour / Sweet / Umami / Umami/brothy: 15-point scale; for Atringent / Bitter / Metallic / Mineral/Flinty / Numbing / Salt / Sour / Sweet / Umami / Umami/brothy: solution
[1] = 1.0 ppb in solution (NaCl, water)
[2] = 1.0 to 100 ppb, listed as UE 30
[3] = 10.0 ppb in solution (NaCl, water)
[4] = 100.0 ppb in solution (NaCl, water)

[pGlu]-Val-Cys [UE-30] was tested, and the Off-taste (panel of trained tasters) was “had a metallic taste”, the “Astringent, mean evaluation score in solution” value (“Astringent … in solution” below) (panelists; [1]) was 0.0 and the “Bitter, mean evaluation score in solution” value (from here on “Bitter … in solution”) (panelists; [1]) was 0.0. For the same substance, the “Flinty/Mineral, mean evaluation score in solution” value (shortened to “Flinty/Mineral … in solution”) (panelists; [1]) was 0.4, the “Metallic, mean evaluation score in solution” value (“Metallic … in solution” below) (panelists; [1]) was 0.0 and the “Numbing, mean evaluation score in solution” value (“Numbing … in solution” below) (panelists; [1]) was 0.0. The “Salt, mean evaluation score in solution” value (panelists; [1]) was 1.2, the “Sour, mean evaluation score in solution” value (panelists; [1]) was 0.0 and the “Sweet, mean evaluation score in solution” value (panelists; [1]) was 0.0. For the same substance, the “Umami FF, mean evaluation score in solution” value (shortened to “Umami FF”) (panelists; [1]) was 0.1, the “Umami, mean evaluation score in solution” value (panelists; [1]) was 0.0 and the “Mineral/Flinty aromatic in solution as the concentration increases” value (panelists; 1.0 to 100 ppb) was “increases”. For the same substance, the “Salt perception level in solution as the concentration increases” value (panelists; 1.0 to 100 ppb) was “increases slightly”, the “Umami aromatic in solution as the concentration increases” value (panelists; 1.0 to 100 ppb) was “shows no distinct pattern” and the “Umami feeling factor in solution as the concentration increases” value (panelists; 1.0 to 100 ppb) was “increases”. For the same substance, the “Mineral/Flinty aromatic in solution as the concentration increases” value (panelists; [2]) was “increase slightly”, the “Salt perception level in solution as the concentration increases” value (panelists; [2]) was “increase slightly” and the “Astringent … in solution” value (panelists; [3]) was 0.0. The “Bitter … in solution” value (panelists; [3]) was 0.0, the “Flinty/Mineral … in solution” value (panelists; [3]) was 0.8 and the “Metallic … in solution” value (panelists; [3]) was 0.0. For the same substance, the “Numbing … in solution” value (panelists; [3]) was 0.0, the “Salt, mean evaluation score in solution” value (panelists; [3]) was 1.5 and the “Sour, mean evaluation score in solution” value (panelists; [3]) was 0.0. The “Sweet, mean evaluation score in solution” value (panelists; [3]) was 0.0, the “Umami FF” value (panelists; [3]) was 0.6 and the “Umami, mean evaluation score in solution” value (panelists; [3]) was 0.4. The “Astringent … in solution” value (panelists; [4]) was 0.0, the “Bitter … in solution” value (panelists; [4]) was 0.7 and the “Flinty/Mineral … in solution” value (panelists; [4]) was 1.1. For the same substance, the “Metallic … in solution” value (panelists; [4]) was 0.0, the “Numbing … in solution” value (panelists; [4]) was 0.0 and the “Salt, mean evaluation score in solution” value (panelists; [4]) was 1.8. The “Sour, mean evaluation score in solution” value (panelists; [4]) was 0.0, the “Sweet, mean evaluation score in solution” value (panelists; [4]) was 0.0 and the “Umami FF” value (panelists; [4]) was 2.1. For the same substance, the “Umami, mean evaluation score in solution” value (panelists; [4]) was 0.1, the Atringent (panelists; Concentration 1, MAX) was 0.0 and the Bitter (panelists; Concentration 1, MAX) was 0.0. For the same substance, the Metallic (panelists; Concentration 1, MAX) was 0.0, the Mineral/Flinty (panelists; Concentration 1, MAX) was 0.5 and the Numbing (panelists; Concentration 1, MAX) was 0.0. For the same substance, the Salt (panelists; Concentration 1, MAX) was 1.5, the Sour (panelists; Concentration 1, MAX) was 0.0 and the Sweet (panelists; Concentration 1, MAX) was 0.0. The Umami (panelists; Concentration 1, MAX) was 0.5, the Umami/brothy (panelists; Concentration 1, MAX) was 0.0 and the Atringent (panelists; Concentration 1, MEAN) was 0.0. For the same substance, the Bitter (panelists; Concentration 1, MEAN) was 0.0, the Metallic (panelists; Concentration 1, MEAN) was 0.0 and the Mineral/Flinty (panelists; Concentration 1, MEAN) was 0.4. For the same substance, the Numbing (panelists; Concentration 1, MEAN) was 0.0, the Salt (panelists; Concentration 1, MEAN) was 1.2 and the Sour (panelists; Concentration 1, MEAN) was 0.0. The Sweet (panelists; Concentration 1, MEAN) was 0.0, the Umami (panelists; Concentration 1, MEAN) was 0.1 and the Umami/brothy (panelists; Concentration 1, MEAN) was 0.0. It also gave an Atringent (panelists; Concentration 1, MIN) of 0.0, a Bitter (panelists; Concentration 1, MIN) of 0.0 and a Metallic (panelists; Concentration 1, MIN) of 0.0. It also gave a Mineral/Flinty (panelists; Concentration 1, MIN) of 0.0, a Numbing (panelists; Concentration 1, MIN) of 0.0 and a Salt (panelists; Concentration 1, MIN) of 1.0. For the same substance, the Sour (panelists; Concentration 1, MIN) was 0.0, the Sweet (panelists; Concentration 1, MIN) was 0.0 and the Umami (panelists; Concentration 1, MIN) was 0.0. It also gave a Umami/brothy (panelists; Concentration 1, MIN) of 0.0, an Atringent (panelists; Concentration 10, MAX) of 0.0 and a Bitter (panelists; Concentration 10, MAX) of 0.0. The Metallic (panelists; Concentration 10, MAX) was 0.0, the Mineral/Flinty (panelists; Concentration 10, MAX) was 1.0 and the Numbing (panelists; Concentration 10, MAX) was 0.0. For the same substance, the Salt (panelists; Concentration 10, MAX) was 2.0, the Sour (panelists; Concentration 10, MAX) was 0.0 and the Sweet (panelists; Concentration 10, MAX) was 0.0. The Umami (panelists; Concentration 10, MAX) was 1.0, the Umami/brothy (panelists; Concentration 10, MAX) was 0.8 and the Atringent (panelists; Concentration 10, MEAN) was 0.0. The Bitter (panelists; Concentration 10, MEAN) was 0.0, the Metallic (panelists; Concentration 10, MEAN) was 0.0 and the Mineral/Flinty (panelists; Concentration 10, MEAN) was 0.8. For the same substance, the Numbing (panelists; Concentration 10, MEAN) was 0.0, the Salt (panelists; Concentration 10, MEAN) was 1.5 and the Sour (panelists; Concentration 10, MEAN) was 0.0. For the same substance, the Sweet (panelists; Concentration 10, MEAN) was 0.0, the Umami (panelists; Concentration 10, MEAN) was 0.6 and the Umami/brothy (panelists; Concentration 10, MEAN) was 0.4. For the same substance, the Atringent (panelists; Concentration 10, MIN) was 0.0, the Bitter (panelists; Concentration 10, MIN) was 0.0 and the Metallic (panelists; Concentration 10, MIN) was 0.0. It also gave a Mineral/Flinty (panelists; Concentration 10, MIN) of 0.0, a Numbing (panelists; Concentration 10, MIN) of 0.0 and a Salt (panelists; Concentration 10, MIN) of 1.0. It also gave a Sour (panelists; Concentration 10, MIN) of 0.0, a Sweet (panelists; Concentration 10, MIN) of 0.0 and a Umami (panelists; Concentration 10, MIN) of 0.0. For the same substance, the Umami/brothy (panelists; Concentration 10, MIN) was 0.0, the Atringent (panelists; Concentration 100, MAX) was 0.0 and the Bitter (panelists; Concentration 100, MAX) was 1.5. For the same substance, the Metallic (panelists; Concentration 100, MAX) was 0.0, the Mineral/Flinty (panelists; Concentration 100, MAX) was 1.5 and the Numbing (panelists; Concentration 100, MAX) was 0.0. It also gave a Salt (panelists; Concentration 100, MAX) of 2.0, a Sour (panelists; Concentration 100, MAX) of 0.0 and a Sweet (panelists; Concentration 100, MAX) of 0.0. For the same substance, the Umami (panelists; Concentration 100, MAX) was 3.0, the Umami/brothy (panelists; Concentration 100, MAX) was 0.5 and the Atringent (panelists; Concentration 100, MEAN) was 0.0. The Bitter (panelists; Concentration 100, MEAN) was 0.7, the Metallic (panelists; Concentration 100, MEAN) was 0.0 and the Mineral/Flinty (panelists; Concentration 100, MEAN) was 1.1. For the same substance, the Numbing (panelists; Concentration 100, MEAN) was 0.0, the Salt (panelists; Concentration 100, MEAN) was 1.8 and the Sour (panelists; Concentration 100, MEAN) was 0.0. For the same substance, the Sweet (panelists; Concentration 100, MEAN) was 0.0, the Umami (panelists; Concentration 100, MEAN) was 2.1 and the Umami/brothy (panelists; Concentration 100, MEAN) was 0.1. For the same substance, the Atringent (panelists; Concentration 100, MIN) was 0.0, the Bitter (panelists; Concentration 100, MIN) was 0.0 and the Metallic (panelists; Concentration 100, MIN) was 0.0. The Mineral/Flinty (panelists; Concentration 100, MIN) was 0.8, the Numbing (panelists; Concentration 100, MIN) was 0.0 and the Salt (panelists; Concentration 100, MIN) was 1.0. The Sour (panelists; Concentration 100, MIN) was 0.0, the Sweet (panelists; Concentration 100, MIN) was 0.0 and the Umami (panelists; Concentration 100, MIN) was 1.5. It also gave a Umami/brothy (panelists; Concentration 100, MIN) of 0.0.
